The structures appear in SMILES notation. pEC50: −log10 of the molar value.

This experiment has as its target T1, ghrelin receptor (Homo sapiens, UniProt Q92847).
T1 construct: expressed in transfected cells; host or cells: COS7 cells (stably transfected)
The experiment is described as follows: IP‐One assay (Cisbio IP-One Gq kit), inverse agonist activity. In kind it is cell-based. The following applies: mean±SEM of at least two independent experiments.

T1 sequence (Q92847 whole entry, species assumed): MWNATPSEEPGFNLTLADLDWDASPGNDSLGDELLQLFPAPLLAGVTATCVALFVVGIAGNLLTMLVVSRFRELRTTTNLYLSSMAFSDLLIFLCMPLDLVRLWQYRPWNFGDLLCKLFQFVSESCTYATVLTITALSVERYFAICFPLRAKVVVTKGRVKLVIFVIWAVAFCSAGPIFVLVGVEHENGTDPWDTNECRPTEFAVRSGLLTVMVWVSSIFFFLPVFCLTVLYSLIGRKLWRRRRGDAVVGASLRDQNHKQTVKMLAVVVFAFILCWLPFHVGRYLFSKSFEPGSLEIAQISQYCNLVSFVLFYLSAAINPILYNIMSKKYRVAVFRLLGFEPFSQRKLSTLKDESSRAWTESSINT
Procedure: The four peptides and two known inverse agonists were tested towards their activity on the ghrelin receptor that was stably transfected in COS7 cells and examined in the Cisbio IP‐One assay as described in the supplementary section.
The assay was carried out in COS7 cells that were stably transfected with the ghrelin receptor. Data are the mean ±SEM of at least two independent experiments performed in triplicate.
IP-One assay COS7 cells stably transfected with the ghrelin receptor fused C-terminally to eYFP were cultured in a humidified atmosphere at 37 °C and 5% CO2 in Dulbecco's modified Eagle's medium with higher glucose supplemented with 10% (v/v) FCS and 0.4 mg/ml hygromycin B. Cisbio IP-One Gq assay kit was used according to previous description.[4] Shortly, 10000 cells/well were seeded out in a 384-well flat white plate and on the next day, stimulation was carried out in triplicates for 3h. 3 µl IP1-d2 and 3 µl Ab-cryptate were added and incubated on a tumbler for 60 min. Fluorescence was measured at 620 nm and 665 nm. HTRF ratio was calculated as the ratio 665/620. Obtained data were analyzed with GraphPad Prism 5.0 (GraphPad Software, San Diego, USA)
Emax is the efficacy of the peptide and represents the difference between constitutive activity and activity at maximal effect of the peptide. EC50 is the peptide concentration at half-

Turning to `CC(C)C[C@H](NC(=O)[C@H](CC(C)C)NC(=O)[C@@H](Cc1c[nH]c2ccccc12)NC(=O)[C@H](Cc1ccccc1)NC(=O)[C@@H](Cc1c[nH]c2ccccc12)NC(=O)[C@@H](N)CCCCN)C(N)=O` [Peptide 4, KwFwLL‐NH2], the “E max±SEM” value (efficacy = difference between constitutive activity and activity at maximal effect, normalized to KbFwLL‐NH2 (3)) is 66±3 Δ%. The same compound showed a negative logarithm of the EC50 (pEC50) (inverse agonism, COS7 cells stably transfected with ghrelin receptor-eYFP, 3 h stimulation) of 6.63.

One may read the pEC50 as the negative decadic logarithm of the EC50, by convention in mol/L.

These data come from paper PMC7891422, “Tryptophan Analogues with Fixed Side‐Chain Orientation: Expanding the Scope” (Chembiochem, 2020).
